Results as given in patent publication US8633182B2, “Indanyloxyphenylcyclopropanecarboxylic acids” (Boehringer Ingelheim International GmbH, priority 2012, dated 2014).

Target: human GPR40 receptor (Homo sapiens, UniProt O14842)
Assay: IP1 accumulation measurements using the IPOne assay system in 1321N1 cells stably expressing human GPR40 receptor
Assay type: cell-based
Details: IP1 accumulation (HTRF), 1321N1 cells stably expressing human GPR40, 1 hour stimulation at 37° C.
Experimental: IP1 accumulation measurements using the IPOne assay system—1321N1 cells stably expressing human GPR40 receptor (Euroscreen, Belgium) are seeded 24 h before the assay in black clear-bottom collagen-coated or white 384-well plates in culture medium containing 10% FCS, 1% Na-Pyruvate and 400 μg/mL G418. IP1 is assayed according to the Manufacturer's description (Cisbio Bioassays, France). In brief, the assay is started by substitution of the culture medium by stimulation buffer (Hepes 10 mM, CaCl2 1 mM, MgCl2 0.5 mM, KCl 4.2 mM, NaCl 146 mM and glucose 5.5 mM, pH 7.4) without LiCl or with […]. Cells are stimulated for 1 hour at 37° C., 5 or 10% CO2 by addition of the compounds that are diluted in stimulation buffer containing LiCl yielding a final LiCl concentration of 50 mM. Assays are stopped by adding HTRF-conjugates (IP1-d2 and Anti-IP1 cryptate Tb) and lysis buffer, provided by the manufacturer. After an incubation time of 1 hour at room temperature plates are measured using an EnVision™, Perkin Elmer. The obtained fluorescence ratios at […] are then used to calculate the pEC50 values using GraphPad Prism 5 (Graphpad Software Inc, USA) or Assay Explorer 3.3 Software (Accelrys, Inc.) by interpolation using an IP1 reference curve and subsequent sigmoidal curve fitting allowing for a variable hill slope.

Chain of human GPR40 receptor (O14842 whole entry): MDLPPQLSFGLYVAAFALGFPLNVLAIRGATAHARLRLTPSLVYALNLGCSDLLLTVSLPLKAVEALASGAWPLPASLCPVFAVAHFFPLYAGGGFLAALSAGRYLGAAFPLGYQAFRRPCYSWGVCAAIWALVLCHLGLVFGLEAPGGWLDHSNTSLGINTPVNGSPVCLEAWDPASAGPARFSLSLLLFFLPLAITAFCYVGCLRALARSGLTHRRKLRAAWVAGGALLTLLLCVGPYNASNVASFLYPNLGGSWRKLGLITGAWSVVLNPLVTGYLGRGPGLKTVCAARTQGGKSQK

SMILES	EC50 [nM]
Cc1cc(-c2nnnn2C)cc(C)c1-c1ccc(F)c2c1CC[C@H]2Oc1ccc([C@H]2C[C@@H]2C(=O)O)cc1 [Example 44]	12
Cc1cc(OCCCS(C)(=O)=O)cc(C)c1-c1ccc(F)c2c1CC[C@H]2Oc1ccc([C@@H]2C[C@H]2C(=O)O)cc1 [Example 12, (1R,2R)-2-(4-{(R)-7-Fluoro-4-[4-(3-methanesulfonyl-propoxy)-2,6-dimethyl-phenyl]-indan-1-yloxy}-phenyl)-cyclopropanecarboxylic acid]	328
Cc1cc(-c2nc(C)n(CC(C)(C)O)n2)cc(C)c1-c1ccc(F)c2c1CC[C@H]2Oc1ccc([C@H]2C[C@@H]2C(=O)O)cc1 [Example 41, (1S,2S)-2-[4-((R)-7-Fluoro-4-{4-[1-(2-hydroxy-2-methyl-propyl)-5-methyl-1H-[1,2,4]triazol-3-yl]-2,6-dimethyl-phenyl}-indan-1-yloxy)-phenyl]-cyclopropanecarboxylic acid]	2
Cc1nn(C)cc1-c1ccc(F)c2c1CC[C@H]2Oc1ccc([C@H]2C[C@@H]2C(=O)O)cc1 [Example 56, (1S,2S)-2-(4-((1R)-4-(1,3-dimethyl-1H-pyrazol-4-yl)-7-fluoro-2,3-dihydro-1H-inden-1-yloxy)phenyl)cyclopropanecarb oxylic acid]	224
N#Cc1ncccc1-c1ccc(F)c2c1CC[C@H]2Oc1ccc([C@H]2C[C@@H]2C(=O)O)cc1 [Example 55]	75
Cc1cccc(C)c1-c1ccc(F)c2c1CC[C@H]2Oc1ccc(C2CC2C(=O)O)cc1 (stereo in doubt) [Example 33, 2-{4-[(R)-4-(2,6-Dimethyl-phenyl)-7-fluoro-indan-1-yloxy]-phenyl}-trans-cyclopropanecarboxylic acid]	2
Cc1cc(OCC2CCS(=O)(=O)CC2)cc(C)c1-c1ccc(F)c2c1CC[C@H]2Oc1ccc([C@H]2C[C@@H]2C(=O)O)cc1 [Example 21]	7
COc1cc(O[C@@H]2CCc3c2cccc3C(F)(F)F)ccc1C1CC1C(=O)O (stereo in doubt) [Example 7, 2-[4-((R)-4-Trifluoromethyl-indan-1-yloxy)-2-methoxyphenyl]-trans-cyclopropanecarboxylic acid]	531
Cc1cc(-c2nc(C)n(C)n2)cc(C)c1-c1ccc(F)c2c1CC[C@H]2Oc1ccc([C@H]2C[C@@H]2C(=O)O)cc1 [Example 42, (1S,2S)-2-(4-{(R)-4-[4-(1,5-Dimethyl-1H-[1,2,4]triazol-3-yl)-2,6-dimethyl-phenyl]-7-fluoro-indan-1-yloxy}-phenyl)-cyclopropanecarboxylic acid]	1
Cc1ccc2c(cnn2C)c1-c1ccc(F)c2c1CC[C@H]2Oc1ccc([C@H]2C[C@@H]2C(=O)O)cc1 [Example 58, (1S,2S)-2-(4-((1R)-4-(1,5-dimethyl-1H-indazol-4-yl)-7-fluoro-2,3-dihydro-1H-inden-1-yloxy)phenyl)cyclopropanecarb oxylic acid]	4
Cc1nc(-c2ccc(-c3c(C(F)(F)F)ccc4c3CC[C@H]4Oc3ccc([C@H]4C[C@@H]4C(=O)O)cc3)cc2)no1 [Example 64, (1S,2S)-2-(4-{(R)-4-[4-(5-Methyl-[1,2,4}oxadiazol-3-yl)-phenyl]-5-trifluoromethyl-indan-1-yloxy}-phenyl)-cyclopropanecarboxylic acid]	3
COc1cc(O[C@@H]2CCc3c(OC(F)(F)F)cccc32)ccc1[C@@H]1C[C@H]1C(=O)O [Example 8]	407
Cc1c(C#N)cccc1-c1ccc(F)c2c1CC[C@H]2Oc1ccc([C@H]2C[C@@H]2C(=O)O)cc1 [Example 54]	5
O=C(O)C1CC1c1ccc(O[C@@H]2CCc3c(OC(F)(F)F)cccc32)cc1F (stereo in doubt) [Example 6, 2-[4-((R)-4-Trifluoromethoxy-indan-1-yloxy)-2-fluorophenyl]-trans-cyclopropanecarboxylic acid]	98
O=C(O)[C@H]1C[C@@H]1c1ccc(O[C@@H]2CCc3c(-c4ccncc4C(F)(F)F)ccc(F)c32)cc1 [Example 52, (1S,2S)-2-(4-((1R)-7-fluoro-4-(3-(trifluoromethyl)pyridin-4-yl)-2,3-dihydro-1H-inden-1-yloxy)phenyl)cyclopropanecarb oxylic acid]	38
O=C(O)C1CC1c1ccc(O[C@@H]2CCc3c(OC(F)(F)F)cccc32)cc1 (stereo in doubt) [Example 4, 2-[4-((R)-4-Trifluoromethoxy-indan-1-yloxy)-phenyl]-trans-cyclopropanecarboxylic acid]	18
N#Cc1sccc1-c1ccc(F)c2c1CC[C@H]2Oc1ccc([C@H]2C[C@@H]2C(=O)O)cc1 [Example 47]	191
Cc1cc(-c2nnn(CC(C)(C)O)n2)cc(C)c1-c1ccc(F)c2c1CC[C@H]2Oc1ccc([C@H]2C[C@@H]2C(=O)O)cc1 [Example 43, (1S,2S)-2-[4-((R)-7-Fluoro-4-{4-[2-(2-hydroxy-2-methyl-propyl)-2H-tetrazol-5-yl]-2,6-dimethyl-phenyl}-indan-1-yloxy)-phenyl]-cyclopropanecarboxylic acid]	3

SMILES	EC50 [nM]
Cc1cc(OCC(C)(C)O)cc(C)c1-c1ccc(F)c2c1CC[C@H]2Oc1ccc([C@H]2C[C@@H]2C(=O)O)cc1 [Example 27, (1S,2S)-2-(4-{(R)-7-Fluoro-4-[4-(2-hydroxy-2-methyl-propoxy)-2,6-dimethyl-phenyl]-indan-1-yloxy}-phenyl)-cyclopropanecarboxylic acid]	8
Cc1cc(OCC2(O)CCS(=O)(=O)CC2)cc(C)c1-c1ccc(F)c2c1CC[C@H]2Oc1ccc([C@H]2C[C@@H]2C(=O)O)cc1 [Example 39]	6
Cc1cc(OCC2(S(C)(=O)=O)CC2)cc(C)c1-c1ccc(F)c2c1CC[C@H]2Oc1ccc([C@H]2C[C@@H]2C(=O)O)cc1 [Example 18, (1S,2S)-2-(4-{(R)-7-Fluoro-4-[4-(1-methanesulfonyl-cyclopropylmethoxy)-2,6-dimethyl-phenyl]-indan-1-yloxy}-phenyl)-cyclopropane-carboxylic acid]	5
O=C(O)C1CC1c1ccc(O[C@@H]2CCc3cc(C(F)(F)F)ccc32)cc1 (stereo in doubt) [Example 3, 2-[4-((R)-5-Trifluoromethyl-indan-1-yloxy)-phenyl]-trans-cyclopropanecarboxylic acid]	36
O=C(O)[C@@H]1C[C@H]1c1ccc(O[C@@H]2CCc3c2cccc3C(F)(F)F)cc1 [Example 9]	457
O=C(O)[C@H]1C[C@@H]1c1ccc(O[C@@H]2CCc3c(-c4ccccc4-c4cnco4)ccc(F)c32)cc1 [Example 62]	29
Cc1cc(OCC(C)(C)S(C)(=O)=O)cc(C)c1-c1ccc(F)c2c1CC[C@H]2Oc1ccc([C@H]2C[C@@H]2C(=O)O)cc1 [Example 14, (1S,2S)-2-(4-{(R)-7-Fluoro-4-[4-(2-methanesulfonyl-2-methyl-propoxy)-2,6-dimethyl-phenyl]-indan-1-yloxy}-phenyl)-cyclopropanecarboxylic acid]	8
Cc1cc(-c2nnn(C)n2)cc(C)c1-c1ccc(F)c2c1CC[C@H]2Oc1ccc([C@H]2C[C@@H]2C(=O)O)cc1 [Example 45]	2
O=C(O)[C@H]1C[C@@H]1c1ccc(O[C@@H]2CCc3c(-c4ccccc4-c4cocn4)ccc(F)c32)cc1 [Example 61, (1S,2S)-2-(4-((1R)-7-fluoro-4-(2-(oxazol-4-yl)phenyl)-2,3-dihydro-1H-inden-1-yloxy)-phenyl)cyclopropanecarboxylic acid]	28
CNC(=O)c1cc(C)c(-c2ccc(F)c3c2CC[C@H]3Oc2ccc([C@H]3C[C@@H]3C(=O)O)cc2)c(C)c1 [Example 19, (1S,2S)-2-{4-[(R)-4-(2,6-Dimethyl-4-methylcarbamoyl-phenyl)-7-fluoro-indan-1-yloxy]-phenyl}-cyclopropane-carboxylic acid]	13
Cc1ncc(-c2ccc(F)c3c2CC[C@H]3Oc2ccc([C@H]3C[C@@H]3C(=O)O)cc2)n1C [Example 57, (1S,2S)-2-(4-((1R)-4-(1,2-dimethyl-1H-imidazol-5-yl)-7-fluoro-2,3-dihydro-1H-inden-1-yloxy)phenyl)cyclopropanecarb oxylic acid]	1400
Cc1cc(O[C@H]2CCN(S(C)(=O)=O)C2)cc(C)c1-c1ccc(F)c2c1CC[C@H]2Oc1ccc([C@H]2C[C@@H]2C(=O)O)cc1 [Example 24]	18
Cn1ccc2c(-c3ccc(F)c4c3CC[C@H]4Oc3ccc([C@H]4C[C@@H]4C(=O)O)cc3)cccc21 [Example 53]	13
Cn1ccc2cccc(-c3ccc(F)c4c3CC[C@H]4Oc3ccc([C@H]4C[C@@H]4C(=O)O)cc3)c21 [Example 60]	3
Cc1cc(OCCCS(C)(=O)=O)cc(C)c1-c1ccc(F)c2c1CC[C@H]2Oc1ccc([C@H]2C[C@@H]2C(=O)O)cc1 [Example 11]	9
Cc1cc(OCCC(C)(C)O)cc(C)c1-c1c(C#N)ccc2c1CC[C@H]2Oc1ccc([C@H]2C[C@@H]2C(=O)O)cc1 [Example 34]	8
Cc1cc(C(=O)NCC(C)(C)O)cc(C)c1-c1ccc(F)c2c1CC[C@H]2Oc1ccc([C@H]2C[C@@H]2C(=O)O)cc1 [Example 15, (1S,2S)-2-(4-{(R)-7-Fluoro-4-[4-(2-hydroxy-2-methyl-propylcarbamoyl)-2,6-dimethyl-phenyl]-indan-1-yloxy}-phenyl)-cyclopropanecarboxylic acid]	12
